Here are results for two molecules from publication PMC10706121, “Bioactive Polyketides from the Natural Complex of the Sea Urchin-Associated Fungi Penicillium sajarovii KMM 4718 and Aspergillus protuberus KMM 4747” (International Journal of Molecular Sciences, 2023).

In general, IC50 refers to the concentration needed to halve the response being measured. The term inhibition denotes how much of the control response was suppressed. What is called viability is a read-out of living cells in per cent, often relative to untreated cells.

Converted amounts (≈) assume the structure as drawn. “Also recorded” adds a separate entry of the source. Like-named read-outs stand apart in the source and are kept apart here.

The target in data set [1] is T1, urease from Canavalia ensiformis (Canavalia ensiformis, UniProt P07374).
T1 construct: purchased Sigma
Put plainly: Urease inhibition assay (indophenol method, cell-free). Type of data set: biochemical. How it is done:
A reaction mixture consisting of 25 µL of enzyme solution (urease from Canavalia ensiformis, Sigma, 1U final concentration) and 5 µL of test compounds dissolved in water (10–300.0 µM final concentration) was preincubated at 37 °C for 60 min in 96-well plates. Then, 55 µL of phosphate-buffered solution with […] of urea was added to each well and incubated at 37 °C for 10 min. The urease inhibitory activity was estimated by determining ammonia production using the indophenol method. Briefly, 45 µL of phenol reagent (1% w/v phenol and 0.005% w/v sodium nitroprusside) and 70 µL of alkali reagent (0.5% w/v NaOH and 0.1% active chloride NaClO) were added to each well. The absorbance was measured after 50 min at 630 nm using a MultiskanFS microplate reader (Thermo Scientific Inc., Beverly, MA, USA). All reactions were performed in triplicate in a final volume of 200 µL. The pH was maintained at 7.3–7.5 in all assays. DMSO 5% was used as a positive control.

A further data set relates to Candida albicans KMM 455. Put plainly: Antimicrobial activity, inhibition of microbial growth (OD620). The following applies: for inhibition at 100 µM: Candida albicans. Type of data set: cell-based. How it is done: (§1) The yeast-like fungi of Candida albicans KMM 455 and bacterial strains Staphylococcus aureus ATCC 21027 and Escherichia coli VKPM (B-7935) (Collection of Marine Microorganisms PIBOC FEB RAS) were cultured on solid-medium Mueller Hinton broth with agar (16.0 g/L) in a Petri dish at 37 °C for 24 h.
(§2) The assays were performed in 96-well microplates in appropriate Mueller Hinton broth. Each well contained 90 µL of bacterial or of a yeast-like fungi suspension (10^9 CFU/mL). Then, 10 µL of a compound diluted at concentrations ranging from 1.5 to 100.0 µM using a 2-fold dilution was added (DMSO concentration < 1%). Culture plates were incubated overnight at 37 °C, and the OD620 was measured using a Multiskan FS spectrophotometer (Thermo Scientific Inc., Beverly, MA, USA). The antibiotic gentamicin and antifungal agent nitrofungin were used as positive controls at 1 mg/mL; 1% DMSO in PBS served as a negative control.

Data set [2] has as its system Escherichia coli VKPM (B-7935). The data set is described as above. The format is cell-based. To be noted: Escherichia coli, read-out: Inhibition of Microbial Growth, E. coli. How it is done: as §1, §2
Data set [3] has as its system Staphylococcus aureus ATCC 21027. Described as above. The format is cell-based. The following applies: Staphylococcus aureus. How it is done: as §1, §2
Data set [4] can be described thus: Cell viability assay (MTT), cytotoxic activity. Type of data set: cell-based, human. The following applies: 24 h, MTT; for viability at 24 h, 10 µM / viability at 24 h, 100 µM: percent of control. As for the experimental part:
(§3) The HepG2 and H9c2 cells were cultured in DMEM medium (Biolot, St. Petersburg, Russia) containing 10% fetal bovine serum (Biolot, St. Petersburg, Russia) and 1% penicillin/streptomycin (Biolot, St. Petersburg, Russia) at 37 °C in a humidified atmosphere with 5% (v/v) CO2.
(§4) The HepG2 and H9c2 cells were seeded at concentrations of 5× 10^3 and 3×10^3 cell/well, respectively, and the experiments were started after 24 h. The compounds at concentrations up to 100 µM were added into the wells for 24 h, and the viability of the cells was measured by an MTT (3-(4,5-dimethylthiazol-2-yl)-2,5-diphenyltetrazolium bromide) assay, which was performed according to the manufacturer’s instructions (Sigma-Aldrich, Munich, Germany). All compounds were dissolved with DMSO so that the final concentration of DMSO in the cell culture was not more than 1%. Moreover, DMSO was used as a control. The absorbance of the resulting solution was measured at 570 nm with a microplate reader MultiscanFC (ThermoLabsystems Inc., Beverly, MA, USA). The results are presented as a percent of the control data and calculated IC50.

The test system of a further data set is Bacillus subtilis. Set-up: method as in doi:10.1007/s11274-009-0062-y. The following applies: cited from earlier work.
For the next data set, the system named is Escherichia coli. On the set-up: method as in doi:10.1007/s11274-009-0062-y. To be noted: cited from earlier work.
For a further data set, the system named is Pseudomonas fluorescens. On the set-up: method as in doi:10.1007/s11274-009-0062-y. To be noted: cited from earlier work.
The next data set concerns Candida albicans. Set-up: method as in doi:10.1007/s11274-009-0062-y. The following applies: cited from earlier work.
Data set [5] deals with human hepatocarcinoma HepG2 cells. Put plainly: Cell viability assay (MTT), cytotoxic activity. The format is cell-based. To be noted: 100 µM. How it is done: as §3, §4
Data set [6] relates to normal rat cardiomyocyte H9c2 cells. Description: Cell viability assay (MTT), cytotoxic activity. The format is cell-based. The following applies: 100 µM. How it is done:
as §3, §4

The test system of data set [7] is S. aureus-infected H9c2 cardiomyocytes. Put plainly: Staphylococcus aureus-induced infection of H9c2 cardiomyocytes (in vitro model of infectious myocarditis, MTT). Type of data set: cell-based, rat. The following applies: 1 and 10 µM. As for the experimental part:
The H9c2 cells were seeded at concentrations of 3 × 10^3 cell/well. After 24 h, the cell culture media was changed with an S. aureus bacterial suspension (10^2 CFU/mL) prepared in full DMEM culture media. The investigated compounds at concentrations of 1 and 10 µM were added after 1 h and the cells were incubated for 48 h. The S. aureus suspension with compounds at the same concentrations was used as a control. MTT reagent was added to all wells and formazan production was detected with the microplate reader MultiscanFC (ThermoLabsystems Inc., Beverly, MA, USA). The viability of S. aureus-infected cells was calculated as:Viability, relative units = (OD cells+Sa +comp − OD Sa+comp)/(OD cells+Sa − OD Sa)

The mark [8] stands for this setting: human, HepG2 hepatocarcinoma cells.
The mark [9] stands for this setting: human, read-out: HepG2 Cell Viability.
Where [10] appears, read: rat, read-out: H9c2 Cell Viability.

T1 sequence (P07374 whole entry, looked up): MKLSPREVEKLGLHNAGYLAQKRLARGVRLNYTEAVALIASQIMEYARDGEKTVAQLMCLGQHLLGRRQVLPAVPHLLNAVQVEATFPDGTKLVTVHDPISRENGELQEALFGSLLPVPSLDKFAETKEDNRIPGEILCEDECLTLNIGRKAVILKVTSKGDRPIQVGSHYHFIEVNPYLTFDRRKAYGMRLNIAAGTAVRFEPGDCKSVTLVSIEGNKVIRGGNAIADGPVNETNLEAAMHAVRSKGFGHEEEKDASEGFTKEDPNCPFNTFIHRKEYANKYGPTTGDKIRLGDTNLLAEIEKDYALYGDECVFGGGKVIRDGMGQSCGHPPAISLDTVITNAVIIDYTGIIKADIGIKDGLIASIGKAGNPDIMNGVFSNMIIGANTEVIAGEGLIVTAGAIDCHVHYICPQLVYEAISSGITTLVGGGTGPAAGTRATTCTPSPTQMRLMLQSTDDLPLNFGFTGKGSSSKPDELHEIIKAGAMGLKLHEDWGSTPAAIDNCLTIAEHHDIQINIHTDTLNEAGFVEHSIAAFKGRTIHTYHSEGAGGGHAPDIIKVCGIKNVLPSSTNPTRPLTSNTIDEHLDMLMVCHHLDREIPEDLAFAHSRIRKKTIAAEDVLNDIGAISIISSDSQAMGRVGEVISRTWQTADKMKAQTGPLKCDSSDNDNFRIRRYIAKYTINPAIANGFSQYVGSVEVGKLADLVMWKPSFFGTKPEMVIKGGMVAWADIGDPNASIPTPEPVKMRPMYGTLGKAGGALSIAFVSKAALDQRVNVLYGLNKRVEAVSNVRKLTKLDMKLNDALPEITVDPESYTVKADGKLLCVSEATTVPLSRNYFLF

Regarding `Cc1cc(=O)c2c(C)cc(O)cc2o1` [Compound 4, altechromone A], in data set [1], the IC50 was greater than 100 µM. The “effect on urease activity” value in data set [1] (at concentrations of up to 100 µM) is given as “no effect; also recorded: very poor”. Further, the inhibition at 100 µM turned out to be 11.1 ± 1.3% with Candida albicans KMM 455 (KMM455, compounds tested at 100 µM, read-out: Inhibition of Microbial Growth, C. albicans); 13.6 ± 0.3% in data set [2] (compounds tested at 100 µM); 30.1 ± 1.2% in [3] (ATCC21027, compounds tested at 100 µM, read-out: Inhibition of Microbial Growth, S. aureus). Besides, the IC50 at 24 h in [4] (human, HepG2 cells (human hepatocarcinoma), read-out: HepG2 IC50 (cytotoxic effect)) is greater than 100 µM; in [4] (rat, H9c2 cells (normal rat cardiomyocytes), read-out: H9c2 IC50 (cytotoxic effect)), greater than 100 µM. Also, the viability at 24 h, 10 µM in [4] (setting [8]) was found to be 99.2 ± 6.5%; in data set [4] (rat, H9c2 cardiomyocyte cells), 110 ± 2.9%. In addition, the viability at 24 h, 100 µM in data set [4] (setting [8]) was determined as 92.6 ± 4.1%; in data set [4] (rat, H9c2 cardiomyocyte cells), 96.5 ± 3.6%. Further, the “MIC against Bacillus subtilis” value in the data set with Bacillus subtilis is 3.9 µg/mL (≈ 20.5 µM). Moreover, in the data set with Escherichia coli, the “MIC against Escherichia coli” value is 3.9 µg/mL (≈ 20.5 µM). Further, the “MIC against Pseudomonas fluorescens” value in the data set on Pseudomonas fluorescens was 1.8 µg/mL (≈ 9.46 µM). For the same molecule, the “MIC against Candida albicans” value in the data set with Candida albicans is 3.9 µg/mL (≈ 20.5 µM).

In [1], `COc1cc(O)c2c(=O)c3c(C)cc(O)cc3oc2c1` [Compound 6, griseoxanthone C] displayed an IC50 of 97.3 ± 1.6 µM. Moreover, the inhibition at 100 µM with Candida albicans KMM 455 (KMM455, read-out: Inhibition of Microbial Growth, C. albicans) was less than 10%; in data set [2], less than 10%; in data set [3] (ATCC21027, read-out: Inhibition of Microbial Growth, S. aureus) it was less than 10%. Besides, the “Inhibition of Microbial Growth, C. albicans” value in the data set on Candida albicans KMM 455 (compounds tested at 100 µM) was “did not affect”. Besides, the viability at 24 h, 10 µM in data set [4] (setting [9]) is 85.7 ± 5.7%; in data set [4] (setting [10]), 86 ± 4.8%. Further, the figures for the viability at 24 h, 100 µM in data set [4] (setting [9]) and in [4] (setting [10]) were 27.1 ± 2.4% and 63.3 ± 1.4%, respectively. In addition, the IC50 at 24 h was 64.7 ± 0.8 µM in data set [4] (human, read-out: HepG2 IC50 (cytotoxic effect)) and greater than 100 µM in data set [4] (rat, read-out: H9c2 IC50 (cytotoxic effect)). Also, the “decrease of HepG2 cell viability” value in data set [5] came to 72.9%. Besides, the “decrease of H9c2 cell viability” value in data set [6] was determined as 36.7%. Further, the “effect on the viability of S. aureus-infected H9c2 cardiomyocytes” value in data set [7] is listed as “did not show any statistical effect”.
